# Reference: patent publication US9173935B2, “Phospholipid drug analogs” (Telormedix SA, priority 2010, dated 2015)
# Tests used:
# CYP1A2 = CYP1A2 (Homo sapiens (Human), UniProt P05177); assay: Fluorescent High Throughput P450 assay, CYP1A2; format: biochemical; conditions: substrate CEC; read-out: CYP1A2 IC50 (Mean ± S.D.)
# Protocol: (§1) Inhibition of the P450 isoforms was measured in specific assays using specific substrates that become fluorescent upon CYP metabolism. Compounds, dissolved in ACN (acetonitrile) (CYP2E1, CYP2C8, CYP2B6, CYP3A5) or DMSO (all remaining isoforms), were tested in duplicate (n=2) in concentration-response curves (eight concentrations) in a 96-well plate containing incubation/NADPH regenerating buffer. Specific isoenzymes and substrates were added and incubated at 37° C. Reactions were terminated at different times, depending on the assays, and plates read on a Fluoroskan Ascent at the appropriate emission/excitation wavelengths. Concentration-response curves performed in duplicate for known inhibitors for each isoenzyme were tested in every assay as positive control.
# [1] = Intravenous pharmacokinetics in the mouse; conditions: for Plasma concentration Mean ± S.D.: 1 mg/kg IV
# Protocol: An IV bolus was administered into the caudal vein at a dose of 1 mg/kg in […]. The compound weight was 2.08/10.04 ml. 24 mice were studied. […] […] Animals were sacrificed using ethyl ether at the conclusion of the experiment.
# Sample preparation: In a Sirocco filter plate, 100 microliters of plasma were added to 300 microliters of ACN/MeOH spiked with 5 microliters of IS (IV298 10 micrograms per ml) plus 10 microliters of 5% H3PO4. The plate was shaken for 10 minutes at 80 rpm and then filtered under vacuum for 5 minutes.
# Analytical method: LC/MS/MS: Premiere XE, Eluent: water (A) MeOH(B) plus 0.1% HCOOH gradient. 15% B to 100% B from 0.1 to 0.5, then isocratic 100% B up to 1.5 minutes, flow 0.8 ml/min; Column Acquity UPLC BEH C18 1.7 microm 2.1×50 mm, injection volume of 5 microliters in a T column at 50° C. ESI positive, MRM, Extractor 5V; Capillary 3.5 kV; T source 115° C.; T desolv. 450° C.
# Data analysis: Non-compartmental analysis WinNonlin 5.1; linear trapezoidal, uniform weight.
# [2] = Stability of solid samples with respect to heat (80° C.), HPLC; format: physicochemical
# Protocol: Solid samples of each compound were maintained at 80° C. and analyzed by HPLC.
# RAW.264 cells = assay: Intracellular uptake in RAW.264 cells (LC-MS); format: cell-based; conditions: 10 microM
# Protocol: 5×10^6 RAW.264 cells were adhered overnight in 10 cm tissue culture dishes. […] […] Supernatant (2 ml) and cells (pellets) were collected by trypsinization and frozen at […] for subsequent analysis by LC-MS.
# [3] = Plasma stability, second experiment, human plasma; conditions: human plasma, second experiment
# Protocol: Second experiment: Test compounds (5 mM in DMSO) were diluted at the final concentration of 250 μM with ACN-MeOH 1:1.
# Human plasma (1.180 ml) was spiked with 20 μl of 250 μM solution of the compound (4.16 μM final concentration) and aliquots of 50 μl volume were taken at 0, 15, 30, 60, 120 min and 5 hrs, and immediately quenched with 200 μl of a solution of Verapamil 250 ng/ml (internal standard, I.S.) in ACN:MeOH 95:5. Samples were then centrifuged for 20 min at 3000 rpm at 10° C. and analyzed as reported below. […] The supernatant fractions were analyzed by LC/MS/MS. Zero-time incubations were used as 100% values.
# Stability was calculated as percentage remaining of the area ratio compound/I.S. at each time point vs. area ratio compound/I.S. at time 0 min.
# [4] = tested on: HLA-DR+/CD11c+/CD123- mDCs; assay: FACS analysis of myeloid DC activation in whole blood; format: cell-based, human; conditions: 24 hours, 0.1 and 0.5 uM, three donors
# Protocol: A flow cytometric analysis was performed on whole blood from three donors after treatment with two compound concentrations for 24 h. The FACS analysis for donor 1 and donor 2 was made on another day than donor 3. The compound concentrations were as follows:
# The FACS analysis was used to identify whether the test compounds could induce activation of B cells, and two different subsets of dendritic cells, namely the myeloid CD11c+/CD123− DCs and the plasmacytoid CD11c−/CD123+ DCs. The following markers were studied to identify the activation status of the different subsets:
# The FACS staining was performed according to the manufacturer's instructions. Lysis of red blood cells was performed before FACS staining in order to minimize auto-florescence. To include as many B cells and DCs in the study as possible the FACS analyses were performed on 500,000 cells in total for each staining. A P1 gate was set only to include relevant cells on FSC vs. SSC (see FIGS. 12-15). The results of the individual analysis were present as Mean Fluorescence Intensity
# The analysis of myeloid DCs was based on HLA-DR+/CD11c+/CD123-cells, thus all analyzed cells was included in the HLA-DR+ (P3) gate and CD11c+/CD123− (Q4) gate (see gates in FIGS. 13-15).
# [5] = Storage stability by HPLC (solid or chloroform solution; temperature, light); format: physicochemical
# Protocol: At this point, a stability study was conducted on batch CH730/16/8g.
# The samples were analyzed at t=0 and after 20 days.
# CYP2C9 = CYP2C9 (Homo sapiens (Human), UniProt P11712); assay: Fluorescent High Throughput P450 assay, CYP2C9; format: biochemical; conditions: substrate MFC; read-out: CYP2C9 IC50 (Mean ± S.D.)
# Chain of CYP2C9 (P11712 whole entry, looked up): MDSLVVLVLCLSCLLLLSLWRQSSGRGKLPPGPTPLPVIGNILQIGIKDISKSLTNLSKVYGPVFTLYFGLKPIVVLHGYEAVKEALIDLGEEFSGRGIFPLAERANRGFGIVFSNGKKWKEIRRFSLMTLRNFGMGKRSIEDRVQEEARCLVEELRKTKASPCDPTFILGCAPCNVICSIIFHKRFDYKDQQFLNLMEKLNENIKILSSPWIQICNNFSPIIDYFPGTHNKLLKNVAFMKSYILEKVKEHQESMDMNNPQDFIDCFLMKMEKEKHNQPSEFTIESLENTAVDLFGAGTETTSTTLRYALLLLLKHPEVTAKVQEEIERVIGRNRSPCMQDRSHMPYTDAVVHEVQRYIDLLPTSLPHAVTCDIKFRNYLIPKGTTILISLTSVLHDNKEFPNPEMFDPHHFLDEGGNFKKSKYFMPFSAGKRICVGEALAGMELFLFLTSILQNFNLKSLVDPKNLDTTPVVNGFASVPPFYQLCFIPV
# Protocol: as §1
# CYP2C19 = CYP2C19 (Homo sapiens (Human), UniProt P33261); assay: Fluorescent High Throughput P450 assay, CYP2C19; format: biochemical; conditions: substrate CEC; read-out: CYP2C19 IC50 (Mean ± S.D.)
# Chain of CYP2C19 (P33261 whole entry, looked up): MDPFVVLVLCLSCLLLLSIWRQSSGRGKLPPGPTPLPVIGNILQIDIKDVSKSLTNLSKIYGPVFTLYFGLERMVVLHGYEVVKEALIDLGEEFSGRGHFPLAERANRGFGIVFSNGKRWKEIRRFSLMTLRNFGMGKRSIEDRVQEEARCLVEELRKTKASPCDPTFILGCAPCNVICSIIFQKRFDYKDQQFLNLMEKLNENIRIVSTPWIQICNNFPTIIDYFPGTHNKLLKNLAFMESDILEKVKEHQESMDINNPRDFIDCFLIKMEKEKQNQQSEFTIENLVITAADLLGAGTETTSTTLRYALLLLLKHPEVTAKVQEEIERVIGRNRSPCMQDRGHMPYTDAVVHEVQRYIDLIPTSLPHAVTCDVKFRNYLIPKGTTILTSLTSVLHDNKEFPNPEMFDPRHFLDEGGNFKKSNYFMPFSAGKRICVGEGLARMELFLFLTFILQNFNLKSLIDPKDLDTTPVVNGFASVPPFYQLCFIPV
# Protocol: as §1
# Chain of CYP1A2 (P05177 whole entry, looked up): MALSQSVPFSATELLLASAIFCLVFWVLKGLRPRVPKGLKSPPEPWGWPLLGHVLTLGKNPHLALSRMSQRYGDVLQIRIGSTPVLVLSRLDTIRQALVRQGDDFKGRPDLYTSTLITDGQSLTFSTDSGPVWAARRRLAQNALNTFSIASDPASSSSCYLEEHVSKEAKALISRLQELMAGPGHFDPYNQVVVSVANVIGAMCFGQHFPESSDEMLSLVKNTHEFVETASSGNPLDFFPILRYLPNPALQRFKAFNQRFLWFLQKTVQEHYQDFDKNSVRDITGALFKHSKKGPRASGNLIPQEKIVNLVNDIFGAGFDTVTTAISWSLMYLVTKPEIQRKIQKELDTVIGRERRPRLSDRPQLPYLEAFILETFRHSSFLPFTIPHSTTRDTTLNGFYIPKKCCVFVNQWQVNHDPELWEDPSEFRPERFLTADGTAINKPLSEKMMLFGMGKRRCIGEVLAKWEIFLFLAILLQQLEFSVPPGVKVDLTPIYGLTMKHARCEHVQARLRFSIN
compound,measurement,setting,value
CCCCCCCCCCCC(=O)OCC(COP(=O)(O)OCCNC(=O)c1ccc(Cn2c(=O)[nH]c3c(N)nc(OCCOC)nc32)cc1)OC(=O)CCCCCCCCCCC (centres unmarked) [SC12],IC50,CYP1A2,> 100 µM
same,AUC INF obs,"[1]; 1 mg/kg IV bolus, plasma",12878 ng·min/mL
same,AUClast,"[1]; 1 mg/kg IV bolus, plasma",11744 ng·min/mL
same,C0,"[1]; 1 mg/kg IV bolus, plasma",2664 ng/mL
same,CI,"[1]; 1 mg/kg IV bolus, plasma",77.7 mL/min/kg
same,Clast,"[1]; 1 mg/kg IV bolus, plasma",6 ng/mL
same,Cmax,"[1]; 1 mg/kg IV bolus, plasma",541 ng/mL
same,MRT,"[1]; 1 mg/kg IV bolus, plasma",32 min
same,T ½,"[1]; 1 mg/kg IV bolus, plasma",130 min
same,Tlast,"[1]; 1 mg/kg IV bolus, plasma",120 min
same,Tmax,"[1]; 1 mg/kg IV bolus, plasma",5 min
same,Vss,"[1]; 1 mg/kg IV bolus, plasma",2.5 L/kg
same,Plasma concentration Mean ± S.D.,[1]; 5 min,540.70 ± 179.99 ng/mL
same,Plasma concentration Mean ± S.D.,[1]; 15 min,22.27 ± 3.16 ng/mL
same,Plasma concentration Mean ± S.D.,[1]; 30 min,10.00 ± 1.68 ng/mL
same,Plasma concentration Mean ± S.D.,[1]; 60 min,7.62 ± 0.72 ng/mL
same,Plasma concentration Mean ± S.D.,[1]; 120 min,6.05 ± 0.78 ng/mL
same,Plasma concentration Mean ± S.D.,"[1]; 240 min, LLOQ 5 ng/ml",<LLOQ
same,Plasma concentration Mean ± S.D.,"[1]; 480 min, LLOQ 5 ng/ml",<LLOQ
same,Plasma concentration Mean ± S.D.,"[1]; 1440 min, LLOQ 5 ng/ml",<LLOQ
same,HPLC purity of solid sample,[2]; After 2 hrs at 80° C.,90% HPLC
same,HPLC purity of solid sample,[2]; After 22 hrs at 80° C.,88% HPLC
same,HPLC purity of solid sample,[2]; t = 0,90% HPLC
same,Intracellular Concentration,RAW.264 cells; incubation 1 hours,18.5 % of total
same,Intracellular Concentration,RAW.264 cells; incubation 6 hours,20.6 % of total
same,Intracellular Concentration,RAW.264 cells; incubation 18 hours,21.4 % of total
same,% Remaining,[3]; 0 min,100%
same,% Remaining,[3]; 15 min,112.6 ± 1.0%
same,% Remaining,[3]; 30 min,110.0 ± 1.0%
same,% Remaining,[3]; 60 min,96.7 ± 6.3%
same,% Remaining,[3]; 120 min,102.1 ± 8.7%
same,Plasma stability classification,[3]; up to 120 min,stable
same,CCR7 expression on mDCs,[4],less potent stimulator of CCR7 expression
same,CD80 expression on mDCs,[4],induced a noteworthy CD80 expression in all three donors
same,CD86 expression on mDCs,[4],"induces a weak CD86 expression in donor 2 and 3, but not in donor 1"
same,HPLC RRT = 1,"[5]; Solid, RT and light, t = 20 days",RRT = 1: 87.8%
same,HPLC RRT = 1,"[5]; Solid, external T and light, t = 20 days",RRT = 1: 84.0%
same,HPLC RRT = 1,"[5]; Solution in CHCl3, RT and light, t = 20 days",RRT = 1: 88.0%
same,HPLC RRT = 1,[5]; t = 0,RRT = 1: 90.3%
same,IC50,CYP2C9,33.4 ± 0.3 µM
same,IC50,CYP2C19,> 100 µM
